One test deals with M. pnumoniae Mac. Briefly: Anti-mycoplasmal activity (MIC), agar-dilution method. The test is classed as cell-based, Mycoplasma pneumoniae. Conditions: Mycoplasma. The procedure: (§1) The minimum growth inhibitory concentrations (MIC; μg/ml) of the test chemicals were measured by the agar-dilution method.
(§2) (1) Preparation of a mycoplasma suspension for inoculation
(§3) A stored frozen suspension of mycoplasma (0.2 to 0.3 ml) was inoculated in 2 to 3 ml of a preculture medium to be described later. It was serially diluted tenfold until the dilution ratio reached 10,000 times. These diluted solutions were cultivated at 37° C. for 2 to 7 days. A culture having the highest dilution ratio was selected from those cultures in which a color change of the media was noted as a result of mycoplasma growth. It was diluted to 100 times with the preculture medium to prepare a mycoplasma suspension for inoculation.
(§4) The following preculture media were used.
(§5) For Mycoplasma pneumoniae and Acholeplasma laidlawii, Chanock liquid medium containing 0.5% glucose (pH 7.8) [Library of Bacteriology 2, "Procedures for Isolation and Identification of Human, Animal and Plant Mycoplasmas", edited by Japanese Society for Bacteriology, page 8 (1982), Saikon Publishing Co.] was used.
(§6) (2) Preparation of agar plates containing the test chemicals
(§7) A 1,000 μg/ml aqueous solution of each test chemical was prepared (a difficultly-soluble chemical was dissolved by adding an equimolar amount of sodium hydroxide; the same applies hereinafter). The solution was used as a base solution and its twofold serial dilutions were prepared. The diluted solutions were pipetted on plastic petri dishes each in an amount of 1 ml. The Chanock agar medium (for Mycoplasma hyorhinis, 0.5% mucin was further added) described at page 9 of the above cited "Procedures for Isolation and Identification of Human, Animal and Plant Mycoplasmas" was heated and kept at 55° C. and put in an amount of 9 ml in each of the petri dishes containing the test chemicals and fully mixed with the test chemicals to prepare agar plates containing the test chemicals.
(§8) The mycoplasma suspension for inoculation prepared by the procedure described in section (1) was inoculated in an amount of about 3 microliters on each of the chemical-containing agar plates by means of a Cathra-replicator (3 mm pin). The plates on which Mycoplasma pneumoniae, Mycoplasma arginini, and Acholeplasma laidlawii and Mycoplasma hyorhinis were inoculated were tightly packed in a plastic bag together with the plasic petri dishes including water-immersed absorbent cotton. Mycoplasma pneumoniae was aerobically cultivated at 37° C. under highly humid conditions for 7 days; and Mycoplasma arginini and Acholeplasma laidlawii, for 2 days. The other mycoplasma species were cultivated anaerobically for 2 days by using a GasPak anaerobic system (BBL). After the cultivation, growth of mycoplasma were observed under an OLYMPUS microscope (20-100 X). The lowest concentration of the test chemical at which no growth of mycoplasma was noted is defined as MIC.

Another test concerns M. hyorhinis BST7. The test is described as above. It is filed as cell-based, Mycoplasma hyorhinis. Particulars: Mesomycoplasma hyorhinis. The procedure: as §1, §2, §3, §4
For Mycoplasma hyorhinis, a liquid medium (pH 7.8) for isolation of Mycoplasma hyorhinis [Journal of the Japan Veterinary Medical Association,32, 34-38 (1979)] was used.
as §6, §7, §8

For a further test, the system named is M. orale CH19299. The test is described as above. The test is classed as cell-based, Mycoplasma orale. Conditions: Metamycoplasma orale. Here is the method: as §1, §2, §3, §4
(§9) For other mycoplasma species, Chanock liquid medium (pH 6.8) containing 0.2% arginine was used.
as §6, §7, §8

The test system of another test is A. laidlawii PG8. Described as above. The test is classed as cell-based. Conditions: Acholeplasma laidlawii. The procedure: as §1, §2, §3, §4, §5, §6, §7, §8
The next test deals with M. salivarium PG20. The test is described as above. The test is classed as cell-based, Mycoplasma salivarium. Conditions: Metamycoplasma salivarium. The procedure: as §1, §2, §3, §4, §9, §6, §7, §8
The subject of another test is M. arginini G230. The description is as above. The test is classed as cell-based, Mycoplasma arginini. Conditions: Mycoplasmopsis arginini. Here is the method:
as §1, §2, §3, §4, §9, §6, §7, §8

Another test has as its system mycoplasma. Conditions: in words, background; cited from earlier work.
Another test relates to A. laidlawii PG-8. Briefly: Anti-mycoplasmal activity (MIC, MMC), liquid dilution method. It is filed as cell-based. Particulars: Acholeplasma laidlawii. The procedure: (§10) The minimum growth inhibitory concentration (MIC, μg/ml) and minimum mycoplasmacidal concentration (MMC, μg/ml) of test chemicals were measured by the liquid dilution method. The method of measuring MIC in this example differs from that used in Test Example 1.
(§11) A 1,000 μg/ml aqueous solution of a test chemical was prepared, and diluted to 5 times with a preculture medium. The dilution (200 μg/ml) was serially diluted twofold with the same medium in a 8-well reservoir. Fifty microliters of each diluted solution was distributed in the wells of a microplate. A well to which no test chemical was added was used as a control.
(§12) A mycoplasma suspension for inoculation prepared as in Test Example 1 was pipetted in an amount of 50 microliters to each of the wells. The microplates were sealed by a plate seal, shaken by a micromixer, and cultivated at 37° C. for 5 days. In the control to which no test chemical was added, color change of the medium by the growth of mycoplasma was observed after two days from the start of the cultivation. At this time, 3 microliters of the liquid culture was inoculated in drug-free Chanock agar medium by using a Cathra-replicator. The liquid culture and the agar medium were further cultivated at 37° C. for 3 days (anaerobically in the case of M. orale, and aerobically in the case of A. laidlawii and M. arginini). MIC and MMC were determined from the results of observation on the 5th day. MIC was defined as the lowest concentration of the test chemical at which growth of mycoplasma in the drug-containing liquid medium was not noted, and MMC, as that in the drug-free agar medium.

A further test deals with FL human-amnion cells. Briefly: Cytotoxicity on FL cells (cell proliferation inhibition). Conditions: Homo sapiens, 72 h, read-out: IC50 (50% cell proliferation inhibitory concentration). The test is classed as cell-based.
A further test relates to M. orale CH-19299. Briefly: Anti-mycoplasmal activity (MIC, MMC), liquid dilution method. It is filed as cell-based, Mycoplasma orale. Conditions: Metamycoplasma orale. The procedure: as §10, §11, §12
In another test the test system is M. arginini G-230. Described as above. The test is classed as cell-based, Mycoplasma arginini. Conditions: Mycoplasmopsis arginini. Here is the method: as §10, §11, §12

Converted amounts (≈) assume the structure as drawn. Like-named read-outs stand apart in the source and are kept apart here.

Description for FL human-amnion cells: Whether test chemicals would inhibit growth of cells was examined.
A 1,000 μg/ml aqueous solution of each of the test chemicals was serially diluted twofold with Eagle's minimum essential medium.
FL human-amnion cells (2×10^4 cells) were suspended in 3.6 ml of 10% FBS-MEM medium, put in petri dishes (diameter 60 mm) for tissue culture, and cultivated at 37° C. in 5% CO2 humidified atmosphere for 48 hours. The test chemical solution prepared as above was added in an amount of 0.4 ml to each of the petri dishes in predetermined concentrations, and the cells were cultivated for 3 days. After the cultivation, the medium was removed, and the remainder was washed once with Dulbecco's phosphate buffer (pH 7.4). The cells were peeled off by adding 0.2 ml of a 2.5% trypsin-0.002% EDTA mixed solution (1:9) and properly diluted with 10% FBS-MEM medium. Then, the number of the cells was counted by an Erma hemocytometer.
The cell proliferation rate was calculated by following formula [formula]

One may read the MIC as the lowest concentration that inhibits growth of the organism. `CC1COc2c(N3CCN(C)CC3)c(F)cc3c(=O)c(C(=O)O)cn1c23` (stereo not drawn) [Compound 4]: the MIC was determined as 0.78 µg/mL (≈ 2.16 µM) in the test on M. pnumoniae Mac (agar dilution, M. pnumoniae Mac, read-out: MIC); 3.13 µg/mL (≈ 8.66 µM) in the test with M. hyorhinis BST7 (agar dilution, M. hyorhinis BST7, read-out: MIC); 1.56 µg/mL (≈ 4.32 µM) in the test with M. orale CH19299 (agar dilution, M. orale CH19299, read-out: MIC); 0.78 µg/mL (≈ 2.16 µM) in the test with A. laidlawii PG8 (agar dilution, A. laidlawii PG8, read-out: MIC); 6.25 µg/mL (≈ 17.3 µM) with M. salivarium PG20 (agar dilution, M. salivarium PG20, read-out: MIC); 0.78 µg/mL (≈ 2.16 µM) with M. arginini G230 (agar dilution, M. arginini G230, read-out: MIC).

As to `C=C[C@]1(C)C[C@@H](OC(=O)CSCCN(CC)CC)[C@]2(C)[C@H](C)CC[C@]3(CCC(=O)[C@H]32)[C@@H](C)[C@@H]1O` [tiamulin], in the test with mycoplasma, the “minimum growth inhibitory concentration (MIC) for mycoplasma” value is on record as “low”; the “mode of action on mycoplasma” value was “only act bacteriostatically and not mycoplasmacidally”.

In the case of `O=C(O)c1cn(C2CC2)c2cc(N3CCNCC3)c(F)cc2c1=O` [Compound 2, ciprofloxacin], the MIC in the test with M. pnumoniae Mac was determined as 0.39 µg/mL (≈ 1.18 µM); against A. laidlawii PG-8 (PG8), 0.39 µg/mL (≈ 1.18 µM); with M. hyorhinis BST7 (BST7) it was 0.78 µg/mL (≈ 2.35 µM); in the test on M. orale CH19299 (CH19299), 1.56 µg/mL (≈ 4.71 µM); with A. laidlawii PG8 (PG8), 0.39 µg/mL (≈ 1.18 µM); against M. orale CH-19299 (CH19299), 1.56 µg/mL (≈ 4.71 µM). Moreover, the values for the minimal inhibitory concentration (MIC) against M. salivarium PG20 (PG20), with M. arginini G-230 (G230) and with M. arginini G230 (G230) were 3.13 µg/mL (≈ 9.45 µM), 0.78 µg/mL (≈ 2.35 µM) and 0.78 µg/mL (≈ 2.35 µM), respectively. Moreover, the MBC amounted to 0.39 µg/mL (≈ 1.18 µM) in the test with A. laidlawii PG-8 (PG8, 120 h, read-out: MMC); 1.56 µg/mL (≈ 4.71 µM) with M. orale CH-19299 (CH19299, 120 h, read-out: MMC); 0.78 µg/mL (≈ 2.35 µM) with M. arginini G-230 (G230, 120 h, read-out: MMC). For the same molecule, in the test on FL human-amnion cells, the IC50 is 28 µg/mL (≈ 84.5 µM).
